Laboratory results reported in patent US8362051B2, “Mold-resistant wallboard” (Rohm and Haas Company, priority 2007, dated 2013).

Tests used:
Format in all cases: cell-based
mold [1] = assay: ASTM 3273 fungal growth test on paper sheets, biocide added to pulp slurry; design: key to ASTM 3273 rating Week 1: 0: 100% mold coverage; 1: 90%; 2: 80%; 3: 70%; 4: 60%; 5: 50%; 6: 40%; 7: 30%; 8: 20%; 9: 10%; 10: no mold growth coverage; 8: 20% mold coverage; 9: 10% mold coverage; 10: no mold growth; key to ASTM 3273 rating Week 2 / ASTM 3273 rating Week 3 / ASTM 3273 rating Week 4: 100% mold coverage; 1: 90% mold coverage; 2: 80% mold coverage; 3: 70% mold coverage; 4: 60% mold coverage; 50% mold coverage; 6: 40% mold coverage; 7: 30% mold coverage; 8: 20% mold coverage; 9: 10% mold coverage; 10: no mold growth; conditions: for ASTM 3273 rating Week 1 / ASTM 3273 rating Week 2 / ASTM 3273 rating Week 3 / ASTM 3273 rating Week 4: average of three sheets
Procedure: (§1) The biocides can be evaluated in the following examples by adding to a 0.4 wt % pulp slurry in water (100% recycle) typically used for gypsum wallboard facing paper. The slurry is filtered through a screen to drain the water from the stock and the resulting paper mat is blotted, couched, and dried to form a paper sheet with a basis weight of approximately 40 lb/1000 ft2. Three sheets per condition are prepared. High Performance Liquid Chromatography (HPLC) is used to determine the amount of biocide present in each sheet. The paper sheets are evaluated for fungal growth via ASTM 3273, currently the industry standard for mold-resistant wallboard, as well as the standard TAPPI T-487 fungal efficacy test.
(§2) The values in Tables 1 and 2 below represent data from samples made substantially according to the preceding protocol. The average concentration of active biocide in the paper and the average test rating based on three paper sheets are shown. Based on tables 1 and 2, approximately 4-4.5 times more DIMTS active was needed in the paper sheet than OIT before no mold growth was observed throughout the entire testing period.
(§3) For ASTM 3273, a 4-week test, the following rating scale applies: • 0—100% mold coverage • 1—90% mold coverage • 2—80% mold coverage • 3—70% mold coverage • 4—60% mold coverage • 5—50% mold coverage • 6—40% mold coverage • 7—30% mold coverage • 8—20% mold coverage • 9—10% mold coverage • 10—no mold growth For TAPPI T-487, a 3-week test, the following rating scale applies: • 0—no mold growth • 1—25% mold coverage • 2—50% mold coverage • 3—75% mold coverage • 4—100% mold coverage

mold [2] = assay: TAPPI T-487 fungal efficacy test on paper sheets, biocide added to pulp slurry; design: key: coverage; 8: 20% mold coverage; 9: 10% mold coverage; 10: no mold growth; conditions: average of three sheets
Procedure: as §1, §2, §3

mold [3] = assay: TAPPI T-487 test on surface-treated paper; design: key to TAPPI T-487 rating Week 1 / TAPPI T-487 rating Week 2 / TAPPI T-487 rating Week 3: 100% mold coverage; 1: 90% mold coverage; 2: 80% mold coverage; 3: 70% mold coverage; 4: 60% mold coverage; 50% mold coverage; 6: 40% mold coverage; 7: 30% mold coverage; 8: 20% mold coverage; 9: 10% mold coverage; 10: no mold growth; conditions: surface treatment, average of three sheets
Procedure: The papers of this example were prepared via surface treatment. The values in Table 3 below represent the average concentration of active biocide in the paper and the average […]-487 test rating based on three paper sheets.

mold [4] = assay: ASTM-G21 Fungal Resistant Test Method on paper handsheets; design: key: 0: None; Traces of growth (<10%); 2: Light growth (10-30%); Medium growth (30-60%); 4: Heavy growth (60-complete coverage); conditions: for Mold Resistance Rating Week 1 A / Mold Resistance Rating Week 2 A: replicate A; for Mold Resistance Rating Week 1 B / Mold Resistance Rating Week 2 B: replicate B
Procedure: Results are compared with paper hand sheets incorporating DIMTS in the same manner, as well as handsheets with no biocide added. Handsheets are formed using a commercial handsheet mold which makes sheets 8×8 inches in area. The weights of the handsheets are 11-12 lbs/1000 ft^2 representing the typical basis weight of just the liner (outer facing plys) of the multi-ply wallboard paper. The 3:1 carbendazim/IPBC blend is added to the paper slurry (0.7 wt %) prior to forming the handsheets. Recycled news print paper is used as the source of fiber for handsheets. High Performance Liquid Chromatography (HPLC) is used to determine the amount of biocide present in each sheet, however, this method is not capable of detecting the levels of IPBC in the handsheets, therefore only carbendazim values are reported in Table 4 as weight of active (mg) per kg of paper. The handsheets are evaluated for fungal resistance using ASTM G21 over a two-week test period. A and B represent replicate analyses of same handsheet in Table 4.

`Cc1ccc(S(=O)(=O)C(I)I)cc1` [DIMTS, diiodomethyltolylsulfone] was tested, and the “ASTM 3273 rating Week 1” value (mold [1]; 370 ppm in paper sheet) was 10, the “ASTM 3273 rating Week 2” value (mold [1]; 370 ppm in paper sheet) was 8 (20% mold coverage) and the “ASTM 3273 rating Week 3” value (mold [1]; 370 ppm in paper sheet) was 0 (100% mold coverage). For the same compound, the “ASTM 3273 rating Week 4” value (mold [1]; 370 ppm in paper sheet) was 0 (100% mold coverage), the “ASTM 3273 rating Week 1” value (mold [1]; 660 ppm in paper sheet) was 10 and the “ASTM 3273 rating Week 2” value (mold [1]; 660 ppm in paper sheet) was 8 (20% mold coverage). For the same compound, the “ASTM 3273 rating Week 3” value (mold [1]; 660 ppm in paper sheet) was 7 (30% mold coverage), the “ASTM 3273 rating Week 4” value (mold [1]; 660 ppm in paper sheet) was 6 (40% mold coverage) and the “ASTM 3273 rating Week 1” value (mold [1]; 1272 ppm in paper sheet) was 10. For the same compound, the “ASTM 3273 rating Week 2” value (mold [1]; 1272 ppm in paper sheet) was 10, the “ASTM 3273 rating Week 3” value (mold [1]; 1272 ppm in paper sheet) was 10 and the “ASTM 3273 rating Week 4” value (mold [1]; 1272 ppm in paper sheet) was 10. For the same compound, the “DIMTS active needed in the paper sheet relative to OIT before no mold growth was observed throughout the entire testing period” value (mold [1]; approximately, based on tables 1 and 2 (ASTM 3273 and TAPPI T-487)) was 4-4.5 times, the “TAPPI T-487 rating Week 1” value (mold [2]; 386 ppm in paper sheet) was 0 and the “TAPPI T-487 rating Week 2” value (mold [2]; 386 ppm in paper sheet) was 2 (50% mold coverage). The “TAPPI T-487 rating Week 3” value (mold [2]; 386 ppm in paper sheet) was 3 (75% mold coverage), the “TAPPI T-487 rating Week 1” value (mold [2]; 553 ppm in paper sheet) was 0 and the “TAPPI T-487 rating Week 2” value (mold [2]; 553 ppm in paper sheet) was 2 (50% mold coverage). The “TAPPI T-487 rating Week 3” value (mold [2]; 553 ppm in paper sheet) was 3 (75% mold coverage), the “TAPPI T-487 rating Week 1” value (mold [2]; 855 ppm in paper sheet) was 0 and the “TAPPI T-487 rating Week 2” value (mold [2]; 855 ppm in paper sheet) was 0. For the same compound, the “TAPPI T-487 rating Week 3” value (mold [2]; 855 ppm in paper sheet) was 0, the “TAPPI T-487 rating Week 1” value (mold [3]; 43 ppm in paper) was 2 (50% mold coverage) and the “TAPPI T-487 rating Week 2” value (mold [3]; 43 ppm in paper) was 4 (100% mold coverage). The “TAPPI T-487 rating Week 3” value (mold [3]; 43 ppm in paper) was 4 (100% mold coverage), the “TAPPI T-487 rating Week 1” value (mold [3]; 563 ppm in paper) was 0 and the “TAPPI T-487 rating Week 2” value (mold [3]; 563 ppm in paper) was 0. The “TAPPI T-487 rating Week 3” value (mold [3]; 563 ppm in paper) was 0, the “TAPPI T-487 rating Week 1” value (mold [3]; 5389 ppm in paper) was 0 and the “TAPPI T-487 rating Week 2” value (mold [3]; 5389 ppm in paper) was 0. The “TAPPI T-487 rating Week 3” value (mold [3]; 5389 ppm in paper) was 0, the “Mold Resistance Rating Week 1 A” value (mold [4]; 281 ppm active in handsheet) was 1 (Traces of growth (<10%)) and the “Mold Resistance Rating Week 1 B” value (mold [4]; 281 ppm active in handsheet) was 1 (Traces of growth (<10%)). The “Mold Resistance Rating Week 2 A” value (mold [4]; 281 ppm active in handsheet) was 4 (Heavy growth (60-complete coverage)), the “Mold Resistance Rating Week 2 B” value (mold [4]; 281 ppm active in handsheet) was 4 (Heavy growth (60-complete coverage)) and the “Mold Resistance Rating Week 1 A” value (mold [4]; 297 ppm active in handsheet) was 1 (Traces of growth (<10%)). For the same compound, the “Mold Resistance Rating Week 1 B” value (mold [4]; 297 ppm active in handsheet) was 1 (Traces of growth (<10%)), the “Mold Resistance Rating Week 2 A” value (mold [4]; 297 ppm active in handsheet) was 4 (Heavy growth (60-complete coverage)) and the “Mold Resistance Rating Week 2 B” value (mold [4]; 297 ppm active in handsheet) was 4 (Heavy growth (60-complete coverage)). For the same compound, the “Mold Resistance Rating Week 1 A” value (mold [4]; 354 ppm active in handsheet) was 0, the “Mold Resistance Rating Week 1 B” value (mold [4]; 354 ppm active in handsheet) was 0 and the “Mold Resistance Rating Week 2 A” value (mold [4]; 354 ppm active in handsheet) was 1 (Traces of growth (<10%)). The “Mold Resistance Rating Week 2 B” value (mold [4]; 354 ppm active in handsheet) was 1 (Traces of growth (<10%)), the “Mold Resistance Rating Week 1 A” value (mold [4]; 732 ppm active in handsheet) was 0 and the “Mold Resistance Rating Week 1 B” value (mold [4]; 732 ppm active in handsheet) was 0. The “Mold Resistance Rating Week 2 A” value (mold [4]; 732 ppm active in handsheet) was 0, the “Mold Resistance Rating Week 2 B” value (mold [4]; 732 ppm active in handsheet) was 0 and the “Mold Resistance Rating Week 1 A” value (mold [4]; 748 ppm active in handsheet) was 0. The “Mold Resistance Rating Week 1 B” value (mold [4]; 748 ppm active in handsheet) was 0, the “Mold Resistance Rating Week 2 A” value (mold [4]; 748 ppm active in handsheet) was 0 and the “Mold Resistance Rating Week 2 B” value (mold [4]; 748 ppm active in handsheet) was 0.
